This is an account of results in ChEMBL document CHEMBL3045390, “Synthesis of 3-(5-bromo-2,3-dimethoxy-phenyl)-[1, 2, 4] oxadiazole analogues and their evaluation as anti-Parkinsons agents” (Med Chem Res, 2008).

Each structure is given as a SMILES string. The source made the active and inactive calls. No cut-off for these calls is given here.

Data set [1] is described as follows: Lipophilicity, log P of the compound. It is filed as physicochemical. The following applies: octanol/water.
In data set [2] the test system is Rattus norvegicus. The data set can be described thus: Antiparkinson's activity in Rattus norvegicus albino (rat) assessed as reduction of chlorpromazine-induced catatonia at 100 mg/kg, ip administered 30 min before chlorpromazine challenge measured up to 180 min. It is filed as functional, organism-based. On the set-up: dose 100 mg/kg.
In data set [3] the test system is Rattus norvegicus. Briefly: Neurotoxicity inRattus norvegicus albino (rat) assessed as motor coordination at 200 mg/kg, ip after 30 min by […]. It is filed as toxicity, organism-based. On the set-up: dose 200 mg/kg, route intraperitoneal. The note with it: in vivo, 0.5 h.
In data set [4] the test system is Rattus norvegicus. Briefly: Neurotoxicity inRattus norvegicus albino (rat) assessed as motor coordination at 10 mg/kg, ip after 30 min by […]. It is filed as toxicity, organism-based. On the set-up: dose 10 mg/kg, route intraperitoneal. The note with it: in vivo, 0.5 h.
In data set [5] the test system is Rattus norvegicus. The data set can be described thus: Antiparkinson's activity in Rattus norvegicus albino (rat) assessed as reduction of chlorpromazine-induced catatonia at 10 mg/kg, ip administered 30 min before chlorpromazine challenge measured up to 180 min. The class given is functional, organism-based. On the set-up: dose 10 mg/kg.

The term logP denotes the decadic logarithm of the partition coefficient of the neutral form, usually between octanol and water. Read a low logP as a more hydrophilic compound. Compound `COc1cc(Br)cc(-c2noc(C3CCN(C)CC3)n2)c1OC` yielded a logP in data set [1] of 3.86. Moreover, the result with Rattus norvegicus [2] was Active. Further, the Activity entry with Rattus norvegicus [3] is “Non-toxic”.
For `COc1cc(Br)cc(-c2noc(C3CCCN3Cc3ccccc3)n2)c1OC` (stereo not drawn) the same measures were 5.52, “Active” and “Toxic”.
For `COc1cc(Br)cc(-c2noc(C3CCCN(C)C3)n2)c1OC` (stereo not drawn) the same measures were 4.08, “Active” and “Non-toxic”.
For `COc1cc(Br)cc(-c2noc(C3CCCCN3C)n2)c1OC` (stereo not drawn) the same measures were 4.21, “Active” and “Non-toxic”.
Take `COc1cc(Br)cc(-c2noc(C3CCCCN3Cc3ccccc3)n2)c1OC` (stereo not drawn): the logP in data set [1] stood at 5.81. Besides, the outcome in the data set on Rattus norvegicus [2] was Active. In the data set on Rattus norvegicus [3], the Activity result is on record as “Toxic”.
The corresponding values for `COc1cc(Br)cc(-c2noc(C3CCCN(Cc4ccccc4)C3)n2)c1OC` (stereo not drawn) are 5.81, “Active” and “Toxic”.
With `N[C@@H](Cc1ccc(O)c(O)c1)C(=O)O` [LEVODOPA], in the data set with Rattus norvegicus [4], the Activity result is recorded as “Non-toxic”. Moreover, the outcome in the data set on Rattus norvegicus [5] was inactive.
`COc1cc(Br)cc(-c2noc(C3CCCN3C)n2)c1OC` (stereo not drawn): the logP in data set [1] was 3.79. The outcome in the data set on Rattus norvegicus [2] was Active. Further, the Activity entry in the data set on Rattus norvegicus [3] is reported as “Non-toxic”.
With `COc1cc(Br)cc(-c2noc(C3CCN(Cc4ccccc4)CC3)n2)c1OC`, the logP in data set [1] came to 5.59. Besides, in the data set with Rattus norvegicus [2], the outcome was Active. In the data set on Rattus norvegicus [3], the Activity result is on record as “Toxic”.
For `NCCc1ccc(O)c(O)c1` [DOPAMINE], in the data set with Rattus norvegicus [4], the Activity result was “Non-toxic”. Moreover, the outcome with Rattus norvegicus [5] was inactive.
